Active and inactive are the calls of the source.
Tests used:
[1] = biological target: Peroxisome proliferator-activated receptor gamma/Nuclear receptor coactivator 2 (Homo sapiens, UniProt P37231); format: functional;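 note: agonist potency for raising coactivator recruitment to the receptor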
[2] = biological target: Peroxisome proliferator-activated receptor gamma/Nuclear receptor coactivator 1 (Homo sapiens, UniProt P37231); format: functional;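 note: agonist potency as compounds enhance coactivator SRC-1 recruitment to PPARgamma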
[3] = biological target: Peroxisome proliferator-activated receptor gamma/Nuclear receptor coactivator 3 (Homo sapiens, UniProt P37231); format: functional;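 note: agonist potency for raising coactivator recruitment to the receptor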
[4] = biological target: Peroxisome proliferator-activated receptor gamma/Nuclear receptor corepressor 2 (Homo sapiens, UniProt P37231+Q9Y618); test: Counterscreen for NR2E3 inverse agonists: TR-FRET-based biochemical high throughput dose response assay to identify inverse agonists of the interaction between peroxisome proliferator-activated receptor gamma (PPARg) and nuclear receptor co-repressor 2 (NCOR2).; format: functional
[5] = biological target: Photoreceptor-specific nuclear receptor (Homo sapiens, UniProt Q9Y5X4); test: NR2E3 inverse agonists, dose response, biochemical, TR-FRET (AID 463256); format: functional
Chain of Photoreceptor-specific nuclear receptor (Q9Y5X4 whole entry): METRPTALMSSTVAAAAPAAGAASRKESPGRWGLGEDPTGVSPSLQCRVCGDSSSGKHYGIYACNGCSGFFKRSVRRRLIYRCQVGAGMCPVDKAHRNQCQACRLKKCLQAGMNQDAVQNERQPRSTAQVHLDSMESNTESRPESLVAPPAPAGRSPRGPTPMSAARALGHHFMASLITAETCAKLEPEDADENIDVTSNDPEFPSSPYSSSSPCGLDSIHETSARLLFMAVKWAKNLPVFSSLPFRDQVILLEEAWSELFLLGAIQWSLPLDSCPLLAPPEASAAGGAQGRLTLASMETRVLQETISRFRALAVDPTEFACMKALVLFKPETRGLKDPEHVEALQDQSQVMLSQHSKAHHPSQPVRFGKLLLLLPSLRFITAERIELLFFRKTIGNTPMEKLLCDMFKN

[6] = biological target: T1, Neuropeptide Y receptor type 1 (Homo sapiens, UniProt P25929); format: functional;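 note: HEK293 cells with a CNG channel challenged with NPY then isoproterenol; potency as antagonist that reverses NPY suppression of cAMP signal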
T1 sequence (P25929 whole entry): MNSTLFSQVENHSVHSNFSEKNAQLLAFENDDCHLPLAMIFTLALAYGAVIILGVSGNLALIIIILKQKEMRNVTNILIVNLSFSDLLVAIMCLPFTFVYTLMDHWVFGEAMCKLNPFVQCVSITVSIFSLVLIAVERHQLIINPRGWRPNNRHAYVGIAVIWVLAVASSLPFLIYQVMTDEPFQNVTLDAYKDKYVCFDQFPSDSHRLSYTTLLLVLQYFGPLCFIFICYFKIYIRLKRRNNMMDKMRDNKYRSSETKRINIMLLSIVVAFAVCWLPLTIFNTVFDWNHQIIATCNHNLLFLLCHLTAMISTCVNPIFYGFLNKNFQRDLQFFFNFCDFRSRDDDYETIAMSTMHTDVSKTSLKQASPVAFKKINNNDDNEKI

[7] = biological target: T2, Neuropeptide Y receptor type 2 (Homo sapiens, UniProt P49146); format: functional, cell-based;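 note: HEK293 cells expressing the receptor and a CNG channel; stimulus was NPY near EC95 followed by isoproterenol to raise cAMP; antagonist potency measured as restoring cAMP signal that NPY suppresses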
T2 sequence (P49146 whole entry): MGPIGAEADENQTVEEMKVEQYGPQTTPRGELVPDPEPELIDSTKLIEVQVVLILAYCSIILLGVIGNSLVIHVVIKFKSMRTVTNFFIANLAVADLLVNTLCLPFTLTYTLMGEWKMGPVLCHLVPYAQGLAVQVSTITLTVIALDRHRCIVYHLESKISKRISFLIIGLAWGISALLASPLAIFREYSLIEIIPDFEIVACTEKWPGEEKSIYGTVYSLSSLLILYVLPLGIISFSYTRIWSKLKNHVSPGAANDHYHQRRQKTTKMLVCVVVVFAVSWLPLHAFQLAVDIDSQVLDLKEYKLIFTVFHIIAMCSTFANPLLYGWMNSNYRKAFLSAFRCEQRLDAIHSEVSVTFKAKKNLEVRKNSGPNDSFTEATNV

[8] = cytotoxicity in HEK-293T cells, dose response, cytotoxicity control for TCR NF-kB inhibitor project, luminescence, T-cell screen hits (AID 489026); format: functional, cell-based;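 note: cells exposed to compound about 14 hours before the viability readout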
[9] = biological target: Sphingosine 1-phosphate receptor 2 (Homo sapiens, UniProt O95136); test: Dose Response Cell Based Assay for Agonists of the S1P2 Receptor of Purchased Analogues. [Related pubchem assays: 729, 843, 854, 736 ]; format: functional
Chain of Sphingosine 1-phosphate receptor 2 (O95136 whole entry): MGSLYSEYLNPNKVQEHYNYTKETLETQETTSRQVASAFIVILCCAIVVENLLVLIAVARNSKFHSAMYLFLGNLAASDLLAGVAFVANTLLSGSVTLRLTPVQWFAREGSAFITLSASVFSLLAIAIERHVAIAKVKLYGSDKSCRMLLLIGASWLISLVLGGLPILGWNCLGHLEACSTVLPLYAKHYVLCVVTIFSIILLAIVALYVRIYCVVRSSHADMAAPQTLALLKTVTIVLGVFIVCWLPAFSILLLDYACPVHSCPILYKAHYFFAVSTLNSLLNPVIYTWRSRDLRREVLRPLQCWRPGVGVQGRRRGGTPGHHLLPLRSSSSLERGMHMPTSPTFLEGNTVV

[10] = biological target: Aryl hydrocarbon receptor (Homo sapiens, UniProt P35869); test: Luminescence-based cell-based high throughput dose response assay for activators of the Aryl Hydrocarbon Receptor (AHR). [Related pubchem assays: 2796 (Primary screen (AHR activators in singlicate)), 2845 (Confirmation screen (AHR activators in triplicate)), 434939 (Counterscreen (PXR activators in triplicate)), 2804 (Summary (AHR activators))]; format: ADME
Chain of Aryl hydrocarbon receptor (P35869 whole entry): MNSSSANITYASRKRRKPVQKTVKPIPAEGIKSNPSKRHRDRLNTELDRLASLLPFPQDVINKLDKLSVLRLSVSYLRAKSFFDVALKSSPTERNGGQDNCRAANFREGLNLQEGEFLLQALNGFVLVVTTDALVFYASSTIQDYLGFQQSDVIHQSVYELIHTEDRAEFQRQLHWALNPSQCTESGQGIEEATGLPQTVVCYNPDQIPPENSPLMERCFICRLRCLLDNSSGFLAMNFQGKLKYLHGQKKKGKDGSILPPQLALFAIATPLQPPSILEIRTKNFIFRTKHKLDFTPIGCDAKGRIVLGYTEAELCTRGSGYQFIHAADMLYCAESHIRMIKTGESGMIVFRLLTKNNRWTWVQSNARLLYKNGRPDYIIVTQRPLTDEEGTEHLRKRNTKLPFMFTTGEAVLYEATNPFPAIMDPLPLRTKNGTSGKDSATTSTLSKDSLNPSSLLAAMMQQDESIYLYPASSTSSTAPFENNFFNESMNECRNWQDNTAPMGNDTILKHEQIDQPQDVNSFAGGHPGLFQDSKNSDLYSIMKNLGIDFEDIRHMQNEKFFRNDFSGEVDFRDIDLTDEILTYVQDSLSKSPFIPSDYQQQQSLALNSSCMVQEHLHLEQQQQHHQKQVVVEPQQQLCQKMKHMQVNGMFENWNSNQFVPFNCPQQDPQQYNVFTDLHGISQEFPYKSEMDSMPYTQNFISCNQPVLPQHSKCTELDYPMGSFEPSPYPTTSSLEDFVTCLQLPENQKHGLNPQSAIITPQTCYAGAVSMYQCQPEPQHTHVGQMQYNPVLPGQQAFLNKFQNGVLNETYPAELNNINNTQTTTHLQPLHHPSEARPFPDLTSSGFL

[11] = Counterscreen for IDE inhibitors: Luminescence-based cell-based high throughput dose response assay to identify compounds that are cytotoxic to HEK cells. [Related pubchem assays: 434962 (Primary screen (IDE inhibitors in singlicate)), 449730 (Counterscreen (Cytotoxicity in triplicate)), 435028 (Confirmation (IDE inhibitors in triplicate)) …; format: functional; conditions: HEK293
Insulin-degrading enzyme = biological target: T3, Insulin-degrading enzyme (Homo sapiens, UniProt P14735); test: Dose Response: Fluorescence polarization-based cell-based high throughput dose response assay for inhibitors of insulin-degrading enzyme (IDE). [Related pubchem assays: 434962 (Primary screen (IDE inhibitors in singlicate)), 449730 (Counterscreen (Cytotoxicity in triplicate)), 435028 (Confirmation (IDE inhibitors in triplicate)), 434984 (Summary …; format: functional
T3 sequence (P14735 whole entry): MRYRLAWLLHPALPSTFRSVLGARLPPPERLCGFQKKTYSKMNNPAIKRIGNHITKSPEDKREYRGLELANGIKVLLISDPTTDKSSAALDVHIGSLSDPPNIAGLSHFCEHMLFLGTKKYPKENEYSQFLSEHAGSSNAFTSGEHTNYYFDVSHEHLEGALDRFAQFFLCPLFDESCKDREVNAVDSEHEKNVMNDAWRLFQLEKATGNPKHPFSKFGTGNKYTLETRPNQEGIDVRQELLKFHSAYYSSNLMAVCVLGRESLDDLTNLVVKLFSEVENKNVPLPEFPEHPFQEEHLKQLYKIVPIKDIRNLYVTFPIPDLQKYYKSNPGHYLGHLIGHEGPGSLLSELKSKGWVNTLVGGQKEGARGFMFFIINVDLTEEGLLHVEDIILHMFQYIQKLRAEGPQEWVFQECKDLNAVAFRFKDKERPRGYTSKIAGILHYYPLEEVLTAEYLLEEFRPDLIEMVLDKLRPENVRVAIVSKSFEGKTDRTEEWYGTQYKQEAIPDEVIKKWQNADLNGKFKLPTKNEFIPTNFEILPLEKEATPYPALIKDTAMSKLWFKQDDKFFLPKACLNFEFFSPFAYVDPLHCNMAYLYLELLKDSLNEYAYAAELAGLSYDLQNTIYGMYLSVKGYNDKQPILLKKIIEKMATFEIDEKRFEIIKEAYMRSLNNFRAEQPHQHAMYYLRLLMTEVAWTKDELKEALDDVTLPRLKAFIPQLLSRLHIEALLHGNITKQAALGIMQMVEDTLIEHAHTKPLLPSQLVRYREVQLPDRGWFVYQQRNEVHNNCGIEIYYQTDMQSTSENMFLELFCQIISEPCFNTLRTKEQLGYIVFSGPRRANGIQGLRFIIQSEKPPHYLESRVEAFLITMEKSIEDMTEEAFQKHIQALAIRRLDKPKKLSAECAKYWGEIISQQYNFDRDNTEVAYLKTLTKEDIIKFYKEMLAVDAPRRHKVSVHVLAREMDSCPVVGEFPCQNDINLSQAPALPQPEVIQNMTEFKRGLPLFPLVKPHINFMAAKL

Oxytocin receptor = Oxytocin receptor (Homo sapiens, UniProt P30559); test: Counterscreen for vasopressin 1 receptor (V1R) agonists: Fluorescence-based cell-based high throughput dose response assay for agonists of the Oxytocin Receptor (OXTR). [Related pubchem assays: 2435 (Primary screen (OXTR agonists in singlicate)), 434964 (Confirmation screen (V1R agonists in triplicate)), 434969 (Counterscreen (OXTR agonists in …; format: functional
Chain of Oxytocin receptor (P30559 whole entry): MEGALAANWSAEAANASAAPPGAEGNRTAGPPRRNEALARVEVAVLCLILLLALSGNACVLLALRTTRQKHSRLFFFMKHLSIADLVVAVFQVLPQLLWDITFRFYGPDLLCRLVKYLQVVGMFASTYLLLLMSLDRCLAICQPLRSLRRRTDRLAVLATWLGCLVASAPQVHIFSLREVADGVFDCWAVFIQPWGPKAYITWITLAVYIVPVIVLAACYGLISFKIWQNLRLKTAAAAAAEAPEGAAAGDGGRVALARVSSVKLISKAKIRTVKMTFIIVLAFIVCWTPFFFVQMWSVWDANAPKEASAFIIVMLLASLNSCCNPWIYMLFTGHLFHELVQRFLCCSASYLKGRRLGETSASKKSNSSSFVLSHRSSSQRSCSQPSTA

Vasopressin V1a receptor = Vasopressin V1a receptor (Homo sapiens, UniProt P37288); test: Fluorescence-based cell-based high throughput dose response screening assay for agonists of the vasopressin 1 receptor (V1R).; format: functional
Chain of Vasopressin V1a receptor (P37288 whole entry): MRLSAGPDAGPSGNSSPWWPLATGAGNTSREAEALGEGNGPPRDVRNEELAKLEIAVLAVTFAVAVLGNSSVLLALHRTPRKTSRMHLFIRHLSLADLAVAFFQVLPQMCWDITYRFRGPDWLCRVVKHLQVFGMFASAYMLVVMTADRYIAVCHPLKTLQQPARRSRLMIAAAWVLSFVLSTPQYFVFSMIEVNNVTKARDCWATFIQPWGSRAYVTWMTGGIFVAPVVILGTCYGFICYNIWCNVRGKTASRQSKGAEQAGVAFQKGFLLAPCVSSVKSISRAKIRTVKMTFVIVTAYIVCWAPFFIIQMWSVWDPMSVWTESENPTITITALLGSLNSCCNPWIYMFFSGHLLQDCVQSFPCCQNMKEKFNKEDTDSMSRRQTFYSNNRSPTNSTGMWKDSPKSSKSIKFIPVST

[12] = Luminescence Cell-Based Dose Retest to Confirm Inhibitors of Cancer Stem Cells. [Related pubchem assays (depositor defined):AID2717, AID2721]; format: functional; conditions: Homo sapiens
[13] = biological target: T2, Neuropeptide Y receptor type 2; test: NPY-Y2 antagonist potency, selectivity check, dose response, counter-screen for NPY-Y1 antagonist project, cell-based (AID 1278); format: functional
[14] = biological target: T1, Neuropeptide Y receptor type 1; test: NPY-Y1 receptor antagonist potency, dose response, cell-based (AID 1277); format: functional
[15] = inhibitors of firefly luciferase expression or activity, dose response, H4 neuroglioma cells, luminescence (AID 1990); format: functional, cell-based
[16] = luciferase reporter signal reduction – luminescence, H4-C neuroglioblastoma cells, dose response (AID 2458); format: functional, cell-based;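 note: H4 neuroglioblastoma cells stably carrying a luciferase reporter gene fusion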
BJ [17] = test: cytotoxicity toward BJ-TERT fibroblasts, dose response, cell-based, RAS-independent, luminescence (AID 1933); format: functional; conditions: Homo sapiens
cells = format: functional, cell-based
[18] = Luminescence Cell-Based Dose Response HTS to Identify Inhibitors of 5'UTR Stem-Loop Driven Prion Protein mRNA Translation in H4 Neuroglioblastoma Cells. [Related pubchem assays: 1827 (Project Summary), 1813 (Primary HTS)]; format: functional
[19] = inhibitors of SNCA 5'UTR-driven reporter translation, confirmation, H4 neuroglioma cells, luminescence (AID 1988); format: functional, cell-based
BJ [20] = test: cells; format: functional, cell-based; conditions: Homo sapiens
BJ [21] = test: cytotoxicity toward BJ-TERT-LT-ST fibroblasts, dose response, cell-based, RAS-independent, luminescence (AID 1935); format: functional; conditions: Homo sapiens;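 note: BJ fibroblasts immortalized with TERT plus LT and ST oncogenes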
[22] = cytotoxicity toward DRD oncogenic fibroblasts, dose response, cell-based, non-viral oncogenic, luminescence (AID 1934); format: functional; conditions: Homo sapiens
[23] = inhibitors of SNCA 5'UTR-driven translation, confirmation, luminescence, H4 neuroglioblastoma cells, dose confirmation (AID 2454); format: functional, cell-based;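 note: H4 neuroglioblastoma cells carrying an alpha-synuclein 5'UTR luciferase reporter; potency for inhibition of the luciferase signal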
Paired box protein Pax-8 = Paired box protein Pax-8 (Homo sapiens, UniProt Q06710); test: inhibitors of PAX8-driven TPO luciferase reporter, dose response, RMG-I cells, cherry-pick (AID 687027); format: functional, cell-based;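 note: luciferase reporter driven by Pax8 target thyroperoxidase promoter measured by SteadyGlo luminescence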
Chain of Paired box protein Pax-8 (Q06710 whole entry): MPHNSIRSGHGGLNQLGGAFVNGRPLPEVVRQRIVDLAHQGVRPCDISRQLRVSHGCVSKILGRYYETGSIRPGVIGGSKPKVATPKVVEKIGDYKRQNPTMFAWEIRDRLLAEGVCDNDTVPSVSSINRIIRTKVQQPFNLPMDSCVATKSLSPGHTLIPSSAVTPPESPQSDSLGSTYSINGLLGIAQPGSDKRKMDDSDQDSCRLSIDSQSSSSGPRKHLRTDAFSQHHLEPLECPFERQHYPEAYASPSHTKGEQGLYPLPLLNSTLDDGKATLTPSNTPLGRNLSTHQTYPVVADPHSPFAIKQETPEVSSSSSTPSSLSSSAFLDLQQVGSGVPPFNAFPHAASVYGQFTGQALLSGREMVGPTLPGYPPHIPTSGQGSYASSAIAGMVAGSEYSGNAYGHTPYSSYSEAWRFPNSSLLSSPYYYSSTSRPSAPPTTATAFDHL

Cc1cccc(NC(=O)c2sc3nc(-c4ccc(F)cc4)cn3c2C)n1
EC50 [1]: 12300 nM (not active)
EC50 [2]: 16800 nM (not active)
EC50 [3]: 22500 nM (not active)
IC50 [4]: 1180 nM (active)
IC50 [5]: 1170 nM (active)

COC(=O)c1ccccc1NC(=O)Cn1c(-c2nonc2N)nc2ccccc21
IC50 [6]: 4830 nM (active)
IC50 [7]: 15000 nM (not active)
IC50 [8]: > 80000 nM (inactive)

Cc1cc(C(=O)CN(C)CC(=O)N2CCCC2)c(C)n1Cc1ccccc1
EC50 [9]: > 30000 nM (not active)

O=C(Nc1cccc(-c2nc3cc(Cl)ccc3o2)c1)C1CCCO1 (centres undefined)
EC50 [10]: 2580 nM (active)

CCOc1ccc(N2C(=O)S/C(=C\c3ccc(O)c(OC)c3)C2=O)cc1
IC50 [11]: > 55700 nM (not active)
IC50 (Insulin-degrading enzyme): 29800 nM (not active)

CCc1ccc(N=Nc2ccc(O)c3[nH]cnc23)cc1
EC50 (Oxytocin receptor): > 29900 nM (not active)
EC50 (Vasopressin V1a receptor): > 29900 nM (not active)
AC50 [12]: 996 nM (active)

CCOC(=O)C(/C=N/c1cc(C)nn1-c1ccc(Cl)cc1)=C(\O)OCC
IC50 [13]: 30600 nM (not active)
IC50 [14]: 18900 nM (not active)

COc1cc2c(c(OC)c1OC)-c1ccc(O)cc1[C@@H](NC(C)=O)CC2 [N-ACETYLCOLCHINOL]
EC50 [15]: < 100 nM (active)
EC50 [16]: 88 nM (active)
EC50 (BJ [17]): 193 nM (active)
EC50 (cells): 100 nM (active)
EC50 [18]: < 100 nM (active)
EC50 [19]: < 100 nM (active)
EC50 (BJ [20]): 345 nM (inconclusive)
EC50 (BJ [21]): 146 nM (inconclusive)
EC50 [22]: 201 nM (active)
EC50 [23]: 72 nM (active)
IC50 [8]: > 80000 nM (inactive)
AC50 (Paired box protein Pax-8): 370 nM (active)

Source: ChEMBL document CHEMBL1201862, “PubChem BioAssay data set” (2004)
